Experimental data as given in patent publication US5977133A, “Pyridone antibiotic with improved safety profile” (priority 1998, dated 1999).
Converted amounts (≈) assume the structure as drawn.

Tests used:
Format in all cases: cell-based
[1] = test system: S. aureus (CiproS); assay: In vitro MIC, agar dilution; conditions: Staphylococcus aureus
[2] = test system: S. aureus (CiproR); assay: In vitro MIC, agar dilution; conditions: Staphylococcus aureus
[3] = test system: S. epidermidis (CiproS); assay: In vitro MIC, agar dilution; conditions: Staphylococcus epidermidis
[4] = test system: S. epidermidis (CiproR); assay: In vitro MIC, agar dilution; conditions: Staphylococcus epidermidis
[5] = test system: S. pneumoniae (PenS); assay: In vitro MIC, agar dilution; conditions: Streptococcus pneumoniae
[6] = test system: S. pneumoniae (PenR); assay: In vitro MIC, agar dilution; conditions: Streptococcus pneumoniae
[7] = test system: S. pneumoniae (CiproR); assay: In vitro MIC, agar dilution; conditions: Streptococcus pneumoniae, read-out: MIC Range
[8] = test system: S. pyogenes; assay: In vitro MIC, agar dilution; conditions: Streptococcus pyogenes
[9] = test system: E. faecium (CiproS); assay: In vitro MIC, agar dilution; conditions: Enterococcus faecium
[10] = test system: E. faecium (CiproR); assay: In vitro MIC, agar dilution; conditions: Enterococcus faecium, read-out: MIC Range
[11] = test system: E. faecium (VanS); assay: In vitro MIC, agar dilution; conditions: Enterococcus faecium
[12] = test system: E. faecalis (VanS); assay: In vitro MIC, agar dilution; conditions: Enterococcus faecalis
[13] = test system: Enterococcus spp. (VanR); assay: In vitro MIC, agar dilution; conditions: Enterococcus spp. (VanR), 21 isolates
[14] = test system: E. coli; assay: In vitro MIC, agar dilution; conditions: Escherichia coli, 25 isolates
Procedure, shortened: (§1)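 Agar dilution plates were inoculated with ~10^4 CFU per spot by replicator, using 1:100 dilutions (1:10 for slow growers) and incubated at 35–37 °C for 20–24 h. MIC is the lowest concentration giving no growth, where slight haze or sparse colonies count as none, judged against a compound-free BHI agar control.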

[15] = test system: Salmonella spp.; assay: In vitro MIC, agar dilution; conditions: 23 isolates
Procedure, shortened: as §1

[16] = test system: Shigella spp.; assay: microbe, parasite or virus in culture; conditions: read-out: MIC Range
[17] = test system: Klebsiella spp.; assay: In vitro MIC, agar dilution
[18] = test system: C. freundii; assay: In vitro MIC, agar dilution; conditions: Citrobacter freundii
[19] = test system: P. mirabilis; assay: In vitro MIC, agar dilution; conditions: Proteus mirabilis
[20] = test system: Providencia spp.; assay: In vitro MIC, agar dilution; conditions: Providencia spp., 28 isolates
[21] = test system: P. aeruginosa (CiproR); assay: In vitro MIC, agar dilution; conditions: Pseudomonas aeruginosa
[22] = test system: B. fragilis; assay: In vitro MIC, agar dilution; conditions: Bacteroides fragilis
[23] = test system: C. difficile; assay: In vitro MIC, agar dilution; conditions: Clostridioides difficile; C. difficile, 10 isolates; read-out: MIC90
[24] = test system: H. influenzae; assay: In vitro MIC, agar dilution; conditions: Haemophilus influenzae
[25] = test system: M. catarrhalis; assay: In vitro MIC, agar dilution; conditions: Moraxella catarrhalis
[26] = test system: Legionella spp.; assay: microbe, parasite or virus in culture; conditions: Legionella
[27] = test system: M. pneumoniae; assay: In vitro MIC, agar dilution; conditions: Mycoplasmoides pneumoniae, read-out: MIC Range
[28] = test system: H. pylori; assay: In vitro MIC, agar dilution; conditions: Helicobacter pylori
[29] = test system: M. avium; assay: In vitro MIC, agar dilution; conditions: Mycobacterium avium, M. avium, 20 isolates

N[C@@H]1[C@H]2CN(c3nc4c(cc3F)c(=O)c(C(=O)O)cn4-c3ccc(F)cc3F)C[C@@H]12 [Trovafloxacin, trovafloxacin] gave an MIC50 [1] of 0.03 µg/mL (≈ 0.0721 µM), an MIC90 [1] of 0.03 µg/mL (≈ 0.0721 µM) and an MIC ([1]; S. aureus (CiproS), 21 isolates, read-out: MIC Range) of 0.008 to 0.03 µg/mL (≈ 0.0192 to 0.0721 µM). The MIC ([2]; read-out: MIC Range) was 0.25 to 4 µg/mL (≈ 0.6 to 9.61 µM), the MIC50 ([2]; S. aureus (CiproR), 25 isolates, read-out: MIC50) was 2 µg/mL (≈ 4.8 µM) and the MIC90 ([2]; S. aureus (CiproR), 25 isolates, read-out: MIC90) was 2 µg/mL (≈ 4.8 µM). It also gave an MIC90 [3] of 0.06 µg/mL (≈ 0.144 µM), an MIC50 ([3]; S. epidermidis (CiproS), 23 isolates, read-out: MIC50) of 0.06 µg/mL (≈ 0.144 µM) and an MIC ([3]; S. epidermidis (CiproS), 23 isolates, read-out: MIC Range) of 0.015 to 0.06 µg/mL (≈ 0.036 to 0.144 µM). The MIC ([4]; read-out: MIC Range) was 1 to 16 µg/mL (≈ 2.4 to 38.4 µM), the MIC50 ([4]; S. epidermidis (CiproR), 11 isolates, read-out: MIC50) was 4 µg/mL (≈ 9.61 µM) and the MIC90 ([4]; S. epidermidis (CiproR), 11 isolates, read-out: MIC90) was 16 µg/mL (≈ 38.4 µM). For the same compound, the MIC90 [5] was 0.5 µg/mL (≈ 1.2 µM), the MIC ([5]; read-out: MIC Range) was 0.12 to 0.5 µg/mL (≈ 0.288 to 1.2 µM) and the MIC50 ([5]; S. pneumoniae (PenS), 20 isolates, read-out: MIC50) was 0.5 µg/mL (≈ 1.2 µM). For the same compound, the MIC90 [6] was 0.25 µg/mL (≈ 0.6 µM), the MIC ([6]; read-out: MIC Range) was 0.06 to 0.25 µg/mL (≈ 0.144 to 0.6 µM) and the MIC50 ([6]; S. pneumoniae (PenR), 25 isolates, read-out: MIC50) was 0.25 µg/mL (≈ 0.6 µM). For the same compound, the MIC [7] was 0.5 to 1 µg/mL (≈ 1.2 to 2.4 µM), the MIC90 [8] was 0.25 µg/mL (≈ 0.6 µM) and the MIC50 ([8]; S. pyogenes, 21 isolates, read-out: MIC50) was 0.12 µg/mL (≈ 0.288 µM). The MIC ([8]; S. pyogenes, 21 isolates, read-out: MIC Range) was 0.06 to 1 µg/mL (≈ 0.144 to 2.4 µM), the MIC ([9]; read-out: MIC Range) was 0.25 to 1 µg/mL (≈ 0.6 to 2.4 µM) and the MIC50 ([9]; E. faecium (CiproS), 16 isolates, read-out: MIC50) was 0.5 µg/mL (≈ 1.2 µM). The MIC90 ([9]; E. faecium (CiproS), 16 isolates, read-out: MIC90) was 1 µg/mL (≈ 2.4 µM), the MIC [10] was 2 to 32 µg/mL (≈ 4.8 to 76.9 µM) and the MIC ([11]; read-out: MIC Range) was 0.25 to 4 µg/mL (≈ 0.6 to 9.61 µM). The MIC50 ([11]; E. faecium (VanS), 11 isolates, read-out: MIC50) was 2 µg/mL (≈ 4.8 µM), the MIC90 ([11]; E. faecium (VanS), 11 isolates, read-out: MIC90) was 2 µg/mL (≈ 4.8 µM) and the MIC ([12]; read-out: MIC Range) was 0.25 to 1 µg/mL (≈ 0.6 to 2.4 µM). The MIC50 ([12]; E. faecalis (VanS), 17 isolates, read-out: MIC50) was 0.5 µg/mL (≈ 1.2 µM), the MIC90 ([12]; E. faecalis (VanS), 17 isolates, read-out: MIC90) was 1 µg/mL (≈ 2.4 µM) and the MIC50 ([13]; read-out: MIC50) was 1 µg/mL (≈ 2.4 µM). It also gave an MIC90 ([13]; read-out: MIC90) of 1 µg/mL (≈ 2.4 µM), an MIC ([13]; read-out: MIC Range) of 0.06 to 32 µg/mL (≈ 0.144 to 76.9 µM) and an MIC [14] of 0.015 to 0.03 µg/mL (≈ 0.036 to 0.0721 µM). For the same compound, the MIC50 ([14]; read-out: MIC50) was 0.03 µg/mL (≈ 0.0721 µM), the MIC90 ([14]; read-out: MIC90) was 0.03 µg/mL (≈ 0.0721 µM) and the MIC [15] was 0.03 to 1 µg/mL (≈ 0.0721 to 2.4 µM). For the same compound, the MIC50 ([15]; read-out: MIC50) was 0.06 µg/mL (≈ 0.144 µM), the MIC90 ([15]; read-out: MIC90) was 0.12 µg/mL (≈ 0.288 µM) and the MIC [16] was 0.015 to 0.06 µg/mL (≈ 0.036 to 0.144 µM). For the same compound, the MIC90 ([17]; Klebsiella) was 0.25 µg/mL (≈ 0.6 µM), the MIC50 ([17]; Klebsiella spp., 29 isolates, read-out: MIC50) was 0.12 µg/mL (≈ 0.288 µM) and the MIC ([17]; Klebsiella spp., 29 isolates, read-out: MIC Range) was 0.015 to 0.5 µg/mL (≈ 0.036 to 1.2 µM). It also gave an MIC90 [18] of 0.5 µg/mL (≈ 1.2 µM), an MIC50 ([18]; C. freundii, 20 isolates, read-out: MIC50) of 0.06 µg/mL (≈ 0.144 µM) and an MIC ([18]; C. freundii, 20 isolates, read-out: MIC Range) of 0.003 to 1 µg/mL (≈ 0.00721 to 2.4 µM). It also gave an MIC90 [19] of 0.5 µg/mL (≈ 1.2 µM), an MIC ([19]; read-out: MIC Range) of 0.25 to 0.5 µg/mL (≈ 0.6 to 1.2 µM) and an MIC50 ([19]; P. mirabilis, 20 isolates, read-out: MIC50) of 0.25 µg/mL (≈ 0.6 µM). For the same compound, the MIC50 ([20]; read-out: MIC50) was 0.25 µg/mL (≈ 0.6 µM), the MIC90 ([20]; read-out: MIC90) was 2 µg/mL (≈ 4.8 µM) and the MIC ([20]; read-out: MIC Range) was 0.03 to 2 µg/mL (≈ 0.0721 to 4.8 µM). For the same compound, the MIC90 [21] was > 128 µg/mL, the MIC50 ([21]; P. aeruginosa (CiproR), 20 isolates, read-out: MIC50) was > 128 µg/mL and the MIC90 [22] was 0.5 µg/mL (≈ 1.2 µM). For the same compound, the MIC ([22]; read-out: MIC Range) was 0.12 to 1 µg/mL (≈ 0.288 to 2.4 µM), the MIC50 ([22]; B. fragilis, 18 isolates, read-out: MIC50) was 0.25 µg/mL (≈ 0.6 µM) and the MIC90 [23] was 2 µg/mL (≈ 4.8 µM). The MIC90 [24] was 0.03 µg/mL (≈ 0.0721 µM), the MIC50 ([24]; H. influenzae, 18 isolates, read-out: MIC50) was 0.015 µg/mL (≈ 0.036 µM) and the MIC ([24]; H. influenzae, 18 isolates, read-out: MIC Range) was 0.008 to 0.06 µg/mL (≈ 0.0192 to 0.144 µM). The MIC50 [25] was 0.03 µg/mL (≈ 0.0721 µM), the MIC90 [25] was 0.06 µg/mL (≈ 0.144 µM) and the MIC ([25]; M. catarrhalis, 18 isolates, read-out: MIC Range) was 0.015 to 0.25 µg/mL (≈ 0.036 to 0.6 µM). The MIC50 [26] was 0.12 µg/mL (≈ 0.288 µM), the MIC90 [26] was 0.25 µg/mL (≈ 0.6 µM) and the MIC ([26]; read-out: MIC Range) was 0.12 to 0.25 µg/mL (≈ 0.288 to 0.6 µM). It also gave an MIC [27] of 0.12 to 0.25 µg/mL (≈ 0.288 to 0.6 µM), an MIC90 [28] of 0.5 µg/mL (≈ 1.2 µM) and an MIC50 ([28]; H. pylori, 17 isolates, read-out: MIC50) of 0.12 µg/mL (≈ 0.288 µM). The MIC ([28]; H. pylori, 17 isolates, read-out: MIC Range) was 0.06 to 1 µg/mL (≈ 0.144 to 2.4 µM), the MIC50 ([29]; read-out: MIC50) was 32 µg/mL (≈ 76.9 µM) and the MIC90 ([29]; read-out: MIC90) was 64 µg/mL (≈ 154 µM). The MIC ([29]; read-out: MIC Range) was 8 to 128 µg/mL (≈ 19.2 to 307 µM).
